Results taken from PubChem BioAssay AID1259338 (Broad Institute, 2017).
Calls of active or inactive are those of the source.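 Rule for the calls: active = compounds lowering the signal with a fitted AC50 at or below a set concentration limit; inconclusive = flat curve with 30 to 70% inhibition, or a poor fit; inactive = the rest.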

Target: Caspase recruitment domain-containing protein 9 (Homo sapiens) + E3 ubiquitin-protein ligase TRIM62 (Homo sapiens) (UniProt Q9H257+Q9BVG3)
Test: disruptors of CARD9-TRIM62 binding, dose response, cell lysate, HEK293FT lysates, Luminex bead readout (AID 1259338); for activity change, negative = inhibition: reference of the scale not given here
Settings: Luminex bead PPI, MFI

Sequence of Caspase recruitment domain-containing protein 9 (Homo sapiens) + E3 ubiquitin-protein ligase TRIM62 (Homo sapiens) (Q9BVG3 whole entry, looked up, the tested form may be a part): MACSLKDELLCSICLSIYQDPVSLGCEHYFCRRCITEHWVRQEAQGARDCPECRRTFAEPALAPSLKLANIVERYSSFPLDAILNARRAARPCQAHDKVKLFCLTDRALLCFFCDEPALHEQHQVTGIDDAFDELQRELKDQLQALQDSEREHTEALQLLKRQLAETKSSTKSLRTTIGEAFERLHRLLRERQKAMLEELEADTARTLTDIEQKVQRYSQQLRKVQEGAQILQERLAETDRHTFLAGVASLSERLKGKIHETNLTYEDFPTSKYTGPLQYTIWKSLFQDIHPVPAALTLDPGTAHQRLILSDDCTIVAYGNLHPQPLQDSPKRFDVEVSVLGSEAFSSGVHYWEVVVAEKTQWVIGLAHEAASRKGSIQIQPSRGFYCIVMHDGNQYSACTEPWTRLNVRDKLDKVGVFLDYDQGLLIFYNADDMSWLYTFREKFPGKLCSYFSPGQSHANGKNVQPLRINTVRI
Sequence of Caspase recruitment domain-containing protein 9 (Homo sapiens) + E3 ubiquitin-protein ligase TRIM62 (Homo sapiens) (Q9H257 whole entry, looked up, the tested form may be a part): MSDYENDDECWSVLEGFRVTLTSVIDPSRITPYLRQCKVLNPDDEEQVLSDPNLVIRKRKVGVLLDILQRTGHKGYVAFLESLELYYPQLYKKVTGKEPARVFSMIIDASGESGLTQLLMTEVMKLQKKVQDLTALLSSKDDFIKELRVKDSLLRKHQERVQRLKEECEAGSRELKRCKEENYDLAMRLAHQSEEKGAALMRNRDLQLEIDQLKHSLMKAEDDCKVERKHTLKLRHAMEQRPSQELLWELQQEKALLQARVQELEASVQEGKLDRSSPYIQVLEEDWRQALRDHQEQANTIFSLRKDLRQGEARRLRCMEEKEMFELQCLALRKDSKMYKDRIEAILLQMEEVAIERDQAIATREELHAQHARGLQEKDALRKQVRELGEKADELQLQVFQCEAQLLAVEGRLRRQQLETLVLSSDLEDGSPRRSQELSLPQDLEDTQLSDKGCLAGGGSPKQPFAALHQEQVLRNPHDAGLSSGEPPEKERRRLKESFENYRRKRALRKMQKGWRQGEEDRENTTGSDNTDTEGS

Compound	activity change, negative = inhibition (at 80 µM (top of the series))	also measured
O=C(NCc1ccco1)C1CCCN(S(=O)(=O)c2cccc3nonc23)C1 (configuration not stated)	inactive	–
On1c(-c2ccco2)nc2c1CCc1nonc1-2	inactive	–
O=C(O)Cc1c[nH]c2cccc(O)c12	inactive	–
COCCn1c(C)cc(-c2csc(N)n2)c1C	–	activity change, negative = inhibition (at 38 µM (top of the series)): inactive
Cn1nnnc1SCCNCc1ccc(-c2cccc(C(F)(F)F)c2)o1	inactive	–
CCOc1ccc(CNc2nc(-c3nnc(-c4ccc(F)cc4)o3)nc3ccccc23)cc1	inactive	–
O=C(NC1CC1)c1cc(-c2ccco2)nc2ccccc12	–	AC50: > 160 µM (inactive)
